From ChEMBL document CHEMBL4340512, “Discovery of novel triazolo[4,3-b]pyridazin-3-yl-quinoline derivatives as PIM inhibitors” (Eur J Med Chem, 2019)

How the values were obtained:
[1] = biological target: Voltage-gated inwardly rectifying potassium channel KCNH2 (Homo sapiens, UniProt Q12809)
[2] = biological target: T1, Receptor-type tyrosine-protein kinase FLT3 (Homo sapiens, UniProt P36888); experiment: Inhibition of human FLT3 using EAIYAAPFAKKK as substrate incubated for 60 mins by fluorescence based assay
T1 sequence (P36888 whole entry): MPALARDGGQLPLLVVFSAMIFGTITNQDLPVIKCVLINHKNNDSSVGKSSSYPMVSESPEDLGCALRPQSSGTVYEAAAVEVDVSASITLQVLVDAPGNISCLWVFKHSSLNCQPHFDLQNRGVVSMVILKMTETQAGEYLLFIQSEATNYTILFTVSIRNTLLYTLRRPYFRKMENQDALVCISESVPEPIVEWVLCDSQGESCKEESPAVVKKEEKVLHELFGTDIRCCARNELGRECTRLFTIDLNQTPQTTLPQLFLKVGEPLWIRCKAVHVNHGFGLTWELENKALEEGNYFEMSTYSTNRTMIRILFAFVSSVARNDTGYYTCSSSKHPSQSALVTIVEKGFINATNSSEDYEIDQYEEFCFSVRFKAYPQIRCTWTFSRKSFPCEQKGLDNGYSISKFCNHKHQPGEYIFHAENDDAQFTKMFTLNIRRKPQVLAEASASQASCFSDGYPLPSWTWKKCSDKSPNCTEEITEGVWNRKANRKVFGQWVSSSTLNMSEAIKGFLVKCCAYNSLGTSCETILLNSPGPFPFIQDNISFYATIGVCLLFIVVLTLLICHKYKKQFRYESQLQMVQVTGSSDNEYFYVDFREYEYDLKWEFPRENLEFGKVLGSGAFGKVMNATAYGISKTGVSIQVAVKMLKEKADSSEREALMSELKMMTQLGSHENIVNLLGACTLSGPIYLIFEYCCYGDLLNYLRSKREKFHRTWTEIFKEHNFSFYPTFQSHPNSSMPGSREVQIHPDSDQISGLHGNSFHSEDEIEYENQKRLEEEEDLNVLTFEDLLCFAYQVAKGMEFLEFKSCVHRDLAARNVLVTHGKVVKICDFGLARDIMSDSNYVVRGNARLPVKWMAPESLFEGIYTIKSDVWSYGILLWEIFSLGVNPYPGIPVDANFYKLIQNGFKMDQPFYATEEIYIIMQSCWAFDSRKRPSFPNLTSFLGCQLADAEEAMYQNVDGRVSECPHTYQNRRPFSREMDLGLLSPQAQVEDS

Voltage-gated inwardly rectifying potassium channel KCNH2, sequence (Q12809 whole entry): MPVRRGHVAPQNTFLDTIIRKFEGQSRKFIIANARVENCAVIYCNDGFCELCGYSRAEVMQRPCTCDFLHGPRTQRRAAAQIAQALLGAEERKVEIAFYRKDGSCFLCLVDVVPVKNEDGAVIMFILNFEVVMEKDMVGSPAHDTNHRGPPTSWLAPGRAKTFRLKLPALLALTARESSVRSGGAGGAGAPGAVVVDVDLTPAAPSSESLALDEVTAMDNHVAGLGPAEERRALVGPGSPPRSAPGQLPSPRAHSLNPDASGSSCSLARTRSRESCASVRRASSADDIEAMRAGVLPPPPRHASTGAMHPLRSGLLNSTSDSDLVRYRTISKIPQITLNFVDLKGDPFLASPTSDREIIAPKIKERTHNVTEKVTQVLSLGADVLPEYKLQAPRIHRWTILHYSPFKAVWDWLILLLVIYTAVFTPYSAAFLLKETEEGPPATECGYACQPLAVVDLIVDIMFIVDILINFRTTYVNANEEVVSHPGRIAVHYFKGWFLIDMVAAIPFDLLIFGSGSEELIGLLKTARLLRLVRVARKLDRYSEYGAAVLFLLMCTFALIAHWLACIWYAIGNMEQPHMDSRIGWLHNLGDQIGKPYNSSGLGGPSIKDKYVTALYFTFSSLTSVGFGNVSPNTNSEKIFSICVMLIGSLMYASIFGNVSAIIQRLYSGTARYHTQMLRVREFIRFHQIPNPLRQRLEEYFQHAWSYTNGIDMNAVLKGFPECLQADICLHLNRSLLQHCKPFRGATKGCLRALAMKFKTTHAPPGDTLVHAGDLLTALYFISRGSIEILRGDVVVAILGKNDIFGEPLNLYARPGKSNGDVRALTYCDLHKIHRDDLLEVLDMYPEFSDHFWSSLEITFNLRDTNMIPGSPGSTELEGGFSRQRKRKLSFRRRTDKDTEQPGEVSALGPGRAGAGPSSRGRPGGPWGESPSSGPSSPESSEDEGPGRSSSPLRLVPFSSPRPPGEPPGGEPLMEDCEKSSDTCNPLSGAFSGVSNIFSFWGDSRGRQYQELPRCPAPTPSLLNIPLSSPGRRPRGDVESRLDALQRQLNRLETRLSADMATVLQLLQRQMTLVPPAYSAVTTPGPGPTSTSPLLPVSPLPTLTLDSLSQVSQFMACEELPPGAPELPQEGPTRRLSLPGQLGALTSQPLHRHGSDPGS

For `COCCN1CCOc2c1cnn1c(-c3ccc4cccc(NCC5CCNCC5)c4n3)nnc21`, the IC50 [1] was > 20 µM and the IC50 [2] was > 10 µM.
